The values that follow come from patent US7557109B2, “Treatment for attention-deficit hyperactivity disorder” (priority 2001, dated 2009).

Data set [1] relates to DA and 5-HT release in dorsal striatum. Put plainly: In vivo microdialysis of DA and 5-HT release in dorsal striatum, wild-type mice. To be noted: 0.1 mg/kg i.p. The text has this: Wild-type and 5-HT1B knock out mice were implanted with microdialysis probes according to the methods of DeGroote et al., incorporated herein by reference, with the following modifications. (DeGroote et al., Eur. J. Pharmacol., 439:93-100, 2002). The dialysis probe was placed in the dorsal striatum, at coordinates AP +0.80, ML −1.7 mm from bregma, DV −4.0 mm from the dura, according to the stereotaxic atlas of the mouse brain (Franklin and Paxinos, 1997), and with the toothbar set at 0 mm. Microdialysis experiments were begun 16-20 hours after surgery, using previously described methods, which are incorporated herein by reference (DeGroote et al., 2002). After the start of the dialysis probe perfusion, mice were left undisturbed for three hours. Mice were tested in their home cage during the light period. Samples were collected every 20 minutes in vials containing 7.5 μl acetic acid and stored at −80° C. until HPLC analysis.
Release of DA and 5-HT was measured after peripheral administration of eltoprazine or intrastriatal administration of the selective 5-HT1B receptor agonist CP 93129 dihydrochloride (1,4-Dihydro-3-(1,2,3,6-tetrahydro-4-pyridinyl)-5H-pyrrolo[3,2-b]pyridin-5-one, obtained from Tocris, UK.) Drugs were dissolved in distilled water and further diluted in Ringer solution to the final concentration on the day of the experiment. 5-HT and DA were analyzed by HPLC with electrochemical detection. Samples (25 μl) were injected onto an Inertsil ODS-3 column (3 μM, 2.1×100 mm, Aurora Borealis, The Netherlands) using a Gilson pump and autosampler (Separations, The Netherlands). Separation was performed at 40° C. with the electrochemical detector (Intro, ANTEC Leyden, The Netherlands) set at a potential of 600 mV against an Ag/AgCl reference electrode. The signal was analyzed using Gynkotek software. The mobile phase consisted of 5 g/l (NH4)2SO4, 150 mg/l heptane sulphonic acid sodium salt, 0.5 g/l EDTA, 5% methanol, 30 μl/l triethylamine, 30 μl/l acetic acid, pH 4.6. Flow rate was 0.3 ml/min. The detection limit for 5-HT was 0.5 fmol/25 μl sample (signal to noise ratio 2).
Values for the first four consecutive microdialysis samples were averaged to calculate the basal levels of extracellular 5-HT and DA, uncorrected for probe recovery. Student's t-tests were used to compare basal 5-HT and DA values between the two genotypes. Effects of drug treatment were analyzed by a repeated multivariate analysis of variance (ANOVA) with time as ‘within’ and treatment (or dose) and genotype as ‘between’ factors.

The conditions of data set [2]: in vivo; cited from earlier work.

With `c1cc2c(c(N3CCNCC3)c1)OCCO2` [eltoprazine, 1-(2,3-dihydro-1,4-benzodioxanyl-5-yl) piperazine], in data set [1], the “time after administration to decrease of DA and 5-HT release” value was at most 20 min; the “time striatal release of DA and 5-HT remained below basal levels after administration” value is listed as “at least 100 minutes”. Further, in data set [1] (awake mice), the “basal release of 5-HT” value is “decreased basal release” and the “basal release of DA” value is “decreased basal release”. In addition, in data set [2], the absolute bioavailability result is “about 95%”, the “cumulative renal excretion of unchanged eltoprazine” value is on record as “about 40%”, the “dose dependence of plasma concentrations” value is “increase in a linear dose-dependent manner” and the plasma elimination half-life was 5 to 12 h. In data set [2], the terminal half-life was 7 to 9 h and the “time to maximum plasma concentration after administration” value was 1 to 4 h.
